Laboratory results as given in the supplement of paper PMC10627819.

Columns and labels:
S. aureus DSM 20231 = test: Bliss interaction score (quartile over a dose matrix) (fitness difference); higher = more antagonism (negative = synergy)
Outline: (§1)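 Quartiles summarise the Bliss score over technical, biological and donor/recipient replicates, where the score is observed minus expected fitness under a product model. Expected fitness uses single-drug values inferred from combination data. Fitness is OD595 at entry into stationary phase over the plate's robust no-drug mean, capped at 1.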

B. subtilis 168 [1] = test: as above
Outline: as §1

S. pneumoniae D39V [2] = test: as above
Outline: as §1

S. aureus Newman [3] = test: as above
Outline: as §1

S. pneumoniae D39V [4] = test: fitness (endpoint OD595 vs no drug) (fraction); higher = more growth
Outline: (§2)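 In 384-well plates at 37 °C, cultures began at OD595 0.01 in 30 µl, with 55 µl used for S. pneumoniae. OD595 readings every 30 min for 14 h were corrected by the first reading. Fitness divides the stationary-phase transition optical density by the robust mean of no-drug control wells. The result is capped at 1.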

S. aureus Newman [5] = test: as above
Outline: as §2

B. subtilis 168 [6] = test: as above; details: main component drawn
Outline: as §2
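Wherever Bliss interaction score (quartile over a dose matrix) is given: first quartile when negative (synergy) and third quartile when positive (antagonism).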

CCC[C@@H]1C[C@@H](C(=O)N[C@@H]([C@H]2O[C@H](SC)[C@H](O)[C@@H](O)[C@H]2O)[C@H](C)Cl)N(C)C1 [Clindamycin] + C/C(=C\C(=O)OCCCCCCCCC(=O)O)C[C@@H]1OC[C@H](C[C@@H]2O[C@H]2[C@@H](C)[C@H](C)O)[C@@H](O)[C@H]1O [Pseudomonic acid]
Details	Bliss interaction score
B. subtilis 168 [1]	0.0726
S. aureus DSM 20231	0.0297
S. aureus Newman [3]	0.0412
S. pneumoniae D39V [2]	-0.15

fitness, S. pneumoniae D39V [4]
Details	first compound 0.0125 µg/mL	first compound 0.015 µg/mL	first compound 0.025 µg/mL	first compound 0.03 µg/mL	first compound 0.05 µg/mL	first compound 0.06 µg/mL
partner 0.03 µg/mL	0.78	0.836	0.499	0.703	0.211	–
partner 0.06 µg/mL	0.716	0.69	0.4	–	0.17	0.281
partner 0.12 µg/mL	0.237	0.326	0.119	0.229	0.0924	0.16

fitness, S. aureus Newman [5], one replicate
Details	first compound 0.0312 µg/mL	first compound 0.0625 µg/mL	first compound 0.125 µg/mL
partner 0.0313 µg/mL	0.0504	0.0504	0.0456
partner 0.0625 µg/mL	0.046	0.0445	0.0496
partner 0.125 µg/mL	0.0438	0.0538	0.0533

CCC[C@@H]1C[C@@H](C(=O)N[C@@H]([C@H]2O[C@H](SC)[C@H](O)[C@@H](O)[C@H]2O)[C@H](C)Cl)N(C)C1 [Clindamycin] + CC(C1CCC(C(O1)OC2C(CC(C(C2O)OC3C(C(C(CO3)(C)O)NC)O)N)N)N)NC [Gentamicin]
main component drawn
Details	Bliss interaction score
B. subtilis 168 [1]	0.192
S. aureus DSM 20231	0.0691
S. aureus Newman [3]	0.148
S. pneumoniae D39V [2]	-0.0694

Details	fitness
B. subtilis 168 [6], first compound 0.0039 µg/mL, partner 0.0625 µg/mL, one replicate	0.962
B. subtilis 168 [6], first compound 0.0039 µg/mL, partner 0.125 µg/mL, one replicate	0.995
B. subtilis 168 [6], first compound 0.0039 µg/mL, partner 0.25 µg/mL, one replicate	0.94
B. subtilis 168 [6], first compound 0.0078 µg/mL, partner 0.0625 µg/mL, one replicate	0.911
B. subtilis 168 [6], first compound 0.0078 µg/mL, partner 0.125 µg/mL, one replicate	0.938
B. subtilis 168 [6], first compound 0.0078 µg/mL, partner 0.25 µg/mL, one replicate	0.867
B. subtilis 168 [6], first compound 0.0156 µg/mL, partner 0.0625 µg/mL, one replicate	0.828
B. subtilis 168 [6], first compound 0.0156 µg/mL, partner 0.125 µg/mL, one replicate	0.839
B. subtilis 168 [6], first compound 0.0156 µg/mL, partner 0.25 µg/mL, one replicate	0.791
S. aureus Newman [5], first compound 0.0312 µg/mL, partner 0.5 µg/mL, main component drawn	0.839
S. aureus Newman [5], first compound 0.0312 µg/mL, partner 2 µg/mL, main component drawn	0.988
S. pneumoniae D39V [4], first compound 0.0125 µg/mL, partner 2 µg/mL, main component drawn	0.781
S. pneumoniae D39V [4], first compound 0.0125 µg/mL, partner 4 µg/mL, main component drawn	0.812
S. pneumoniae D39V [4], first compound 0.0125 µg/mL, partner 8 µg/mL, main component drawn	0.768
S. pneumoniae D39V [4], first compound 0.015 µg/mL, partner 2 µg/mL, main component drawn	0.732
S. pneumoniae D39V [4], first compound 0.015 µg/mL, partner 4 µg/mL, main component drawn	0.698
S. pneumoniae D39V [4], first compound 0.015 µg/mL, partner 8 µg/mL, main component drawn	0.63
S. pneumoniae D39V [4], first compound 0.025 µg/mL, partner 2 µg/mL, main component drawn	0.528
S. pneumoniae D39V [4], first compound 0.025 µg/mL, partner 4 µg/mL, main component drawn	0.513
S. pneumoniae D39V [4], first compound 0.025 µg/mL, partner 8 µg/mL, main component drawn	0.454
S. pneumoniae D39V [4], first compound 0.03 µg/mL, partner 2 µg/mL, main component drawn	0.454
S. pneumoniae D39V [4], first compound 0.03 µg/mL, partner 4 µg/mL, main component drawn	0.425
S. pneumoniae D39V [4], first compound 0.03 µg/mL, partner 8 µg/mL, main component drawn	0.405
S. pneumoniae D39V [4], first compound 0.05 µg/mL, partner 2 µg/mL, main component drawn	0.239
S. pneumoniae D39V [4], first compound 0.05 µg/mL, partner 4 µg/mL, main component drawn	0.254
S. pneumoniae D39V [4], first compound 0.05 µg/mL, partner 8 µg/mL, main component drawn	0.224
S. pneumoniae D39V [4], first compound 0.06 µg/mL, partner 2 µg/mL, main component drawn	0.299
S. pneumoniae D39V [4], first compound 0.06 µg/mL, partner 4 µg/mL, main component drawn	0.249
S. pneumoniae D39V [4], first compound 0.06 µg/mL, partner 8 µg/mL, main component drawn	0.244

fitness, B. subtilis 168 [6]
Details	first compound 0.0625 µg/mL	first compound 0.125 µg/mL	first compound 0.25 µg/mL
partner 0.0625 µg/mL	0.52	0.397	–
partner 0.25 µg/mL	–	0.0596	0.0604

fitness, S. aureus Newman [5], one replicate, main component drawn
Details	first compound 0.0312 µg/mL	first compound 0.0625 µg/mL	first compound 0.125 µg/mL
partner 0.375 µg/mL	0.709	0.55	0.138
partner 0.75 µg/mL	0.705	0.542	0.177
partner 1.5 µg/mL	0.576	0.254	0.119

O=C(O[C@@H]1Cc2c(O)cc(O)cc2O[C@@H]1c1cc(O)c(O)c(O)c1)c1cc(O)c(O)c(O)c1 [EGCG] + C/C(=C\C(=O)OCCCCCCCCC(=O)O)C[C@@H]1OC[C@H](C[C@@H]2O[C@H]2[C@@H](C)[C@H](C)O)[C@@H](O)[C@H]1O [Pseudomonic acid]
Details	Bliss interaction score
B. subtilis 168 [1]	-0.06
S. aureus DSM 20231	-0.014
S. aureus Newman [3]	0.0163
S. pneumoniae D39V [2]	-0.0856

fitness, S. pneumoniae D39V [4]
Details	first compound 12.5 µg/mL	first compound 25 µg/mL	first compound 50 µg/mL
partner 0.03 µg/mL	0.879	0.953	0.926
partner 0.06 µg/mL	0.74	0.824	–
partner 0.12 µg/mL	0.494	–	0.545

fitness, S. aureus Newman [5], one replicate
Details	first compound 12.5 µg/mL	first compound 25 µg/mL	first compound 50 µg/mL
partner 0.0313 µg/mL	0.0563	0.0468	0.0316
partner 0.0625 µg/mL	0.0491	0.0391	0.0458
partner 0.125 µg/mL	0.0477	0.0401	0.0275

C/C(=C\C(=O)OCCCCCCCCC(=O)O)C[C@@H]1OC[C@H](C[C@@H]2O[C@H]2[C@@H](C)[C@H](C)O)[C@@H](O)[C@H]1O [Pseudomonic acid] + CC1=C\[C@@H](O)CC(=O)Cc2nc(co2)C(=O)N2CCC=C2C(=O)O[C@H](C(C)C)[C@H](C)/C=C/C(=O)NC\C=C\1 [Virginiamycin M1]
Details	Bliss interaction score
B. subtilis 168 [1]	-0.0497
S. aureus DSM 20231	-0.0077
S. aureus Newman [3]	-0.0218
S. pneumoniae D39V [2]	0.106

fitness, one replicate
Details	first compound 0.03 µg/mL	first compound 0.0313 µg/mL	first compound 0.06 µg/mL	first compound 0.0625 µg/mL	first compound 0.12 µg/mL	first compound 0.125 µg/mL
S. aureus Newman [5], partner 0.0625 µg/mL	–	0.0328	–	0.0216	–	0.0353
S. aureus Newman [5], partner 0.125 µg/mL	–	0.0308	–	0.0347	–	0.0594
S. aureus Newman [5], partner 0.25 µg/mL	–	0.0405	–	0.0352	–	0.0492
S. pneumoniae D39V [4], partner 0.15 µg/mL	≥ 1	–	≥ 1	–	0.866	–
S. pneumoniae D39V [4], partner 0.3 µg/mL	≥ 1	–	≥ 1	–	0.865	–

fitness, S. pneumoniae D39V [4]
Details	first compound 0.03 µg/mL	first compound 0.06 µg/mL	first compound 0.12 µg/mL
partner 0.5 µg/mL	0.924	0.856	0.629
partner 1 µg/mL	0.914	0.798	0.63
partner 2 µg/mL	0.952	0.844	0.647

C/C(=C\C(=O)OCCCCCCCCC(=O)O)C[C@@H]1OC[C@H](C[C@@H]2O[C@H]2[C@@H](C)[C@H](C)O)[C@@H](O)[C@H]1O [Pseudomonic acid] + CN1C2=CC=CC=C2N=C3C1=CC=CC3=O [Pyocyanin]
Details	Bliss interaction score
B. subtilis 168 [1]	-0.0558
S. aureus DSM 20231	0.0163
S. aureus Newman [3]	0.0185
S. pneumoniae D39V [2]	-0.0764

fitness, S. pneumoniae D39V [4]
Details	first compound 0.03 µg/mL	first compound 0.06 µg/mL	first compound 0.12 µg/mL
partner 0.325 µg/mL	0.955	0.849	0.611
partner 0.65 µg/mL	0.932	0.843	0.554
partner 1.3 µg/mL	–	0.55	0.395

fitness, S. aureus Newman [5], one replicate
Details	first compound 0.0313 µg/mL	first compound 0.0625 µg/mL	first compound 0.125 µg/mL
partner 1.25 µg/mL	0.0664	0.0399	0.0453
partner 2.5 µg/mL	0.0672	0.0381	0.0514
partner 5 µg/mL	0.0481	0.0417	0.057

C/C(=C\C(=O)OCCCCCCCCC(=O)O)C[C@@H]1OC[C@H](C[C@@H]2O[C@H]2[C@@H](C)[C@H](C)O)[C@@H](O)[C@H]1O [Pseudomonic acid] + CN(C)c1cc(NC(=O)CNC(C)(C)C)c(O)c2c1C[C@H]1C[C@H]3[C@H](N(C)C)C(O)=C(C(N)=O)C(=O)[C@@]3(O)C(O)=C1C2=O [Tigecycline]
Details	Bliss interaction score
B. subtilis 168 [1]	0.07
S. aureus DSM 20231	0.006
S. aureus Newman [3]	-0.0182
S. pneumoniae D39V [2]	-0.124

fitness, S. pneumoniae D39V [4]
Details	first compound 0.03 µg/mL	first compound 0.06 µg/mL	first compound 0.12 µg/mL
partner 0.65 µg/mL	0.872	0.739	0.575
partner 1.3 µg/mL	0.923	0.747	0.612
partner 2.6 µg/mL	0.879	0.752	0.59

fitness, S. aureus Newman [5], one replicate
Details	first compound 0.0313 µg/mL	first compound 0.0625 µg/mL	first compound 0.125 µg/mL
partner 0.039 µg/mL	0.0303	0.0332	0.029
partner 0.078 µg/mL	0.0326	0.0257	0.0238
partner 0.156 µg/mL	0.0698	0.0522	0.0728
